Earlier results on one compound are cited in patent US20180303793A1, “METHODS AND COMPOSITIONS FOR TREATING TRAUMATIC BRAIN INJURY” (SCYTHIAN BIOSCIENCES INC., priority 2015, published 2018).

For this data set the following is noted: single agent.

For the compound `CCCCCCC(C)(C)c1cc(O)c2c(c1)OC(C)(C)[C@H]1CC=C(CO)C[C@H]21` [dexanabinol, 7-hydroxy-delta6-tetrahydrocannabinol 1,1-dimethylheptyl], under “one prior study”, the intracranial pressure entry is “lowered intracranial pressure”. For the same compound, the “gliosis and the subsequent immune cascade” value (other prior studies) was “did not inhibit gliosis”.
